BindingDB's records for doi:10.1002/cbic.201402321 (The University of Texas At Austin, 2014)

Each compound was assayed against T1, Eukaryotic elongation factor 2 kinase (Homo sapiens, UniProt O00418) (assay: Kinase assay).
T1 sequence (O00418 whole entry): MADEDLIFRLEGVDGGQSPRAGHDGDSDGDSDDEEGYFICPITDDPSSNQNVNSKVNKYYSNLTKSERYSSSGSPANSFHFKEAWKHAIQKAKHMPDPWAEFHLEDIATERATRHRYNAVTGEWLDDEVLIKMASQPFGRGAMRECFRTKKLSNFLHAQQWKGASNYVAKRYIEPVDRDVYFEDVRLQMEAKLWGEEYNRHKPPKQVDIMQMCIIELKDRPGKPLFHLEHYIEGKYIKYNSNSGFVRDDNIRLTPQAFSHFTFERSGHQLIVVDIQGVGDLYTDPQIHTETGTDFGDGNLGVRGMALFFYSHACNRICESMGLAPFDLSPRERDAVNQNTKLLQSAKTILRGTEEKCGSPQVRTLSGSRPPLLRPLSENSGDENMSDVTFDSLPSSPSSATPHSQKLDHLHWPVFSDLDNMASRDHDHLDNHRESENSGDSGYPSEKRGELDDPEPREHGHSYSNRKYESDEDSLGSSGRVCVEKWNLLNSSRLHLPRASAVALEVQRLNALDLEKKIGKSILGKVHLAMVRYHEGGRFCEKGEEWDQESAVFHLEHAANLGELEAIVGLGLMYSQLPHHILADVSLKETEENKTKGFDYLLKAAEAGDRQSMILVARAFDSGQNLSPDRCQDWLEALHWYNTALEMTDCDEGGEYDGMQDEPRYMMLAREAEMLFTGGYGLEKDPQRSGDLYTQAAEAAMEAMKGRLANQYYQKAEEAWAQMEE
Method: WT eEF-2K (2 nM) was preincubated with various concentrations of inhibitors (0-1000 uM) in assay buffer containing CaCl2 (150 uM), calmodulin (1 uM), triton X-100 (0.01%), and peptide substrate (50 uM) for 60 min. The reactions were started by addition of [gamma-P32]-ATP (100 uM, specific activity = 1000 cpm/pmol).

Compared with `N#CC1C(=O)NC(=O)C(C#N)C1c1cccc(O)c1` (stereo unspecified) [4‐(3‐hydroxyphenyl)‐2,6‐dioxopiperidine‐3,5‐ dicarbonitrile (4)], `COc1cccc(C2C(C#N)C(=O)NC(=O)C2C#N)c1` (stereo unspecified) [4-(3-methoxyphenyl)-2,6-dioxo-3,5-piperidinedicarbonitrile (MDP)] is 2.6-fold lower in IC50: 66 µM for the first, 25 µM for the second.

`Cc1ccccc1C1C(C#N)C(=O)NC(=O)C1C#N` (stereo unspecified) [4‐(2‐methylphenyl)‐2,6‐dioxopiperidine‐3,5‐ dicarbonitrile (1)] and `Cc1ccc(C2C(C#N)C(=O)NC(=O)C2C#N)cc1` (stereo unspecified) [4‐(4‐methylphenyl)‐2,6‐dioxopiperidine‐3,5‐ dicarbonitrile (3)] are within 1.5-fold of each other in IC50: 33 µM for the first, 46 µM for the second.

First: N#CC1C(=O)NC(=O)C(C#N)C1c1c(Cl)cccc1Cl (stereo unspecified) [4‐(2,6‐dichlorophenyl)‐2,6‐dioxopiperidine‐3,5‐ dicarbonitrile (5)]
Second: N#CC1C(=O)NC(=O)C(C#N)C1c1ccc(Cl)c(Cl)c1 (stereo unspecified) [4-(3,4-dichlorophenyl)-2,6-dioxopiperidine-3,5-dicarbonitrile (2)]
The IC50 of the first is 1.9-fold higher: 57 µM for the first, 30 µM for the second.
